Our source for the IC50 values is patent US20100216779A1 (GLAXOSMITHKLINE LLC, priority 2007, published 2010).

Holding throughout (type): cell-based
The subject of assay [1] is NCI-H929 (multiple myeloma). In words: Inhibition of cell proliferation, CellTiter-Glo, NCI-H929. The following applies: Homo sapiens, 72 h. In short, it runs like this: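 Cells were grown in medium with 10% FBS at 37° C, 5% CO2. Cell number was read as CellTiter-Glo luminescence (cellular ATP), with untreated wells as control.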
On the technique in general: Cellular ATP, detected with luciferase, serves as a proxy for viable cell number.

Assay [2] has as its target T1, human IGF-1R (NIH-3T3 cells over expressing human IGF-1R) (Homo sapiens, UniProt P08069).
T1 construct: expressed in transfected cells; host or cells: NIH-3T3 (mouse fibroblasts)
In words: IGF-1R cellular autophosphorylation (DELFIA). The following applies: IGF-1 stimulated. The method, boiled down: (§1)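 Readout: DELFIA on lysates, with anti-IGF-1R or anti-IR capture and europium anti-pTyr detection, expressed relative to 100% ligand-stimulated signal. Human IGF-1R- or IR-overexpressing NIH-3T3 cells got compound (1.5 nM–30 uM) for 2 h before 15 min IGF-1 (30 ng/mL) or insulin (3 ug/mL).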

For another assay, the system named is COLO205 (colon). Briefly: Inhibition of cell proliferation, CellTiter-Glo, COLO205. The note with it: Homo sapiens, COLO 205, 72 h. The method, boiled down:
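Exponentially growing COLO205 cells in medium with 10% FBS were plated below 2000 cells/well at 37 °C, 5% CO2. Untreated wells served as controls.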

In assay [3] the target is T2, IR (NIH-3T3 cells over expressing human IGF-1R or IR) (Homo sapiens, UniProt P06213).
T2 construct: expressed in transfected cells; host or cells: NIH-3T3 (mouse fibroblasts)
Briefly: IR cellular autophosphorylation (DELFIA). The following applies: NIH-3T3 cells over expressing IR, insulin stimulated. The method, boiled down: as §1

T1 sequence (P08069 31-1367): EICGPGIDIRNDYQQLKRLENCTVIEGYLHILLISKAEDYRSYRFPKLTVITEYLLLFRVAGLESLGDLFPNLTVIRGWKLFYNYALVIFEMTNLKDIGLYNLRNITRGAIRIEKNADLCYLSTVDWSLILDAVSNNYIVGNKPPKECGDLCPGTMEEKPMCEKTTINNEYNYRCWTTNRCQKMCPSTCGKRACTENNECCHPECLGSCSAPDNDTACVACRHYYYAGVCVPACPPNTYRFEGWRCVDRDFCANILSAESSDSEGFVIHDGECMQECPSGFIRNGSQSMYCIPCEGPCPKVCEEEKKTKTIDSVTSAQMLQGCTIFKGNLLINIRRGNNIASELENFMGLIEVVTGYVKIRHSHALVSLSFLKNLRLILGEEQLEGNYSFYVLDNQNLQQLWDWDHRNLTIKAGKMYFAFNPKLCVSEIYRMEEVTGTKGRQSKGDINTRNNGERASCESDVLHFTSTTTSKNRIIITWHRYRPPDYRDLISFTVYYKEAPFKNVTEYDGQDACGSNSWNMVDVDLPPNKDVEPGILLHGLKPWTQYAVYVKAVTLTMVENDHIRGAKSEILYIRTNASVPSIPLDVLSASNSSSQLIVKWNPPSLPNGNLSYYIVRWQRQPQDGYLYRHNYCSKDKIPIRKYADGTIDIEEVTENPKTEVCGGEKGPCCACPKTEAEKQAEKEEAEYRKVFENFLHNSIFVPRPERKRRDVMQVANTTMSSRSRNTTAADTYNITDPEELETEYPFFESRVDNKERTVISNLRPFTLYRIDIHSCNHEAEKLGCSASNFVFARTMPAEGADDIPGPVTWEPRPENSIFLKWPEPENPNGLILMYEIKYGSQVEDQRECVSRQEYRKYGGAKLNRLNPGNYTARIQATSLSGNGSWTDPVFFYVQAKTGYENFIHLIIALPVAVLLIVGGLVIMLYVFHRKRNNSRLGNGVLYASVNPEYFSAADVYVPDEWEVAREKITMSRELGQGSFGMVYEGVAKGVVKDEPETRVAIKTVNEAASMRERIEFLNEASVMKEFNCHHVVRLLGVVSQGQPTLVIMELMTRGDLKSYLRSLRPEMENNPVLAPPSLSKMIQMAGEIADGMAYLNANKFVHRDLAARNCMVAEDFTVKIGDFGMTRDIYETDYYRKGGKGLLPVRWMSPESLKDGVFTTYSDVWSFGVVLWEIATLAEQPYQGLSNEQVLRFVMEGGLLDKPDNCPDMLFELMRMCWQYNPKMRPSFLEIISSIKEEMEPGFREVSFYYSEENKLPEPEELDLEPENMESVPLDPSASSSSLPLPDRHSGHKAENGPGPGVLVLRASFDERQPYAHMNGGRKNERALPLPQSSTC
T2 sequence (P06213 28-1382): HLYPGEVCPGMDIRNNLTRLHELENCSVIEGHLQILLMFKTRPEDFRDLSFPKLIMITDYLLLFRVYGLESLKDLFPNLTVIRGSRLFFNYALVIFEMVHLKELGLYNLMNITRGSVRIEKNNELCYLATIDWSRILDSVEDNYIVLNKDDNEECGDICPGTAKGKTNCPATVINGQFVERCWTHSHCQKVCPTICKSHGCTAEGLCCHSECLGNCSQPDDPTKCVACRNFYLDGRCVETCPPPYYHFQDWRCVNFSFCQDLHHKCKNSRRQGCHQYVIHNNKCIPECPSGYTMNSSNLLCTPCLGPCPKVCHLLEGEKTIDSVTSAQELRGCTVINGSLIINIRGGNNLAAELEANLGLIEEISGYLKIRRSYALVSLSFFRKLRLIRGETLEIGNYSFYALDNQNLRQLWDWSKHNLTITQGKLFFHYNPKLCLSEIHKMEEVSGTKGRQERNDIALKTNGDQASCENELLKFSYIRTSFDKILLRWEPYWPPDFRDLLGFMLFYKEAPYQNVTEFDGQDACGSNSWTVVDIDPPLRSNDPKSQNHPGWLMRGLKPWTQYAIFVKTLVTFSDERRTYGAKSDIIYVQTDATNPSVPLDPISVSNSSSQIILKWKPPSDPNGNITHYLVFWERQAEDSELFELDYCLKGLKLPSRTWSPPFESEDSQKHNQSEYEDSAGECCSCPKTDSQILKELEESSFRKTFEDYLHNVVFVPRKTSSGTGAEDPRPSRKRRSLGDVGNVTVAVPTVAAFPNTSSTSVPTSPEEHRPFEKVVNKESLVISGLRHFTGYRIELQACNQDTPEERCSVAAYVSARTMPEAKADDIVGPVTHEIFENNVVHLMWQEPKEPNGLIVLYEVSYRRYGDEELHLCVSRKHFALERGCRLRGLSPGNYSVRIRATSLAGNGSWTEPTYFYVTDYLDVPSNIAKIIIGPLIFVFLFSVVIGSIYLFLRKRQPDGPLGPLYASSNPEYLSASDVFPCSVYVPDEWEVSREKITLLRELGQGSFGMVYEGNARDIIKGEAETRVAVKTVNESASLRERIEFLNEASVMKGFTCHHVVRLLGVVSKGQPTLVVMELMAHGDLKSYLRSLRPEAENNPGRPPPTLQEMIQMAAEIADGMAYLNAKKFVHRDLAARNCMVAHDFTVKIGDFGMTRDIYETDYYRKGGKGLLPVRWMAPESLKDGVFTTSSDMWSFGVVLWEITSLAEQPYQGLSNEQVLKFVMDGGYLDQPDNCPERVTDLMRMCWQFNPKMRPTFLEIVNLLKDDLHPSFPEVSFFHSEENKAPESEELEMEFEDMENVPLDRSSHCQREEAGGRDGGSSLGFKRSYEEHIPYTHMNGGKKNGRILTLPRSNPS

What is called IC50 is the concentration needed to halve the response being measured. The low end stands for greater potency, the high end for weaker potency. `CCOc1ccc(-c2nc3ccccn3c2-c2ccnc(Nc3ccc(C4CCN(CC(C)C)CC4)cc3OC)n2)cc1C(=O)Nc1c(F)cccc1F` [Example 161, N-(2,6-difluorophenyl)-2-(ethyloxy)-5-{3-[2-({2-(methyloxy)-4-[1-(2-methylpropyl)-4-piperidinyl]phenyl}amino)-4-pyrimidinyl]imidazo[1,2-a]pyridin-2-yl}benzamide]: the IC50 in assay [1] is less than 250 nM; in assay [2], less than 100 nM; in the assay with COLO205 (colon), 250 to 1000 nM; in assay [3], less than 100 nM.
Turning to `CCCN1CCN(c2ccc(Nc3nccc(-c4c(-c5ccc(OC)c(C(=O)Nc6c(F)cccc6F)c5)nc5ccccn45)n3)c(OC)c2)CC1` [Example 174, N-(2,6-difluorophenyl)-2-(methyloxy)-5-[3-(2-{[2-(methyloxy)-4-(4-propyl-1-piperazinyl)phenyl]amino}-4-pyrimidinyl)imidazo[1,2-a]pyridin-2-yl]benzamide], the IC50 in assay [1] was less than 250 nM; in assay [2], less than 100 nM; in the assay on COLO205 (colon), 250 to 1000 nM; in assay [3] it was less than 100 nM.
`COc1cc(N2CCC(N3CCN(CCS(C)(=O)=O)CC3)CC2)ccc1Nc1nccc(-c2c(-c3ccc(OC)c(C(=O)Nc4c(F)cccc4F)c3)nc3ccccn23)n1` [Example 65, N-(2,6-difluorophenyl)-2-(methyloxy)-5-[3-(2-{[2-(methyloxy)-4-(4-{4-[2-(methylsulfonyl)-ethyl]-1-piperazinyl}-1-piperidinyl)phenyl]amino}-4-pyrimidinyl)imidazo-[1,2-a]pyridin-2-yl]benzamide]: the concentration for half-maximal inhibition (IC50) was less than 250 nM in assay [1], less than 100 nM in assay [2], 250 to 1000 nM in the assay with COLO205 (colon) and less than 100 nM in assay [3].
Turning to `COc1cc(N2CCC(C3CCN(CCF)CC3)CC2)ccc1Nc1nccc(-c2c(-c3cccc(C(=O)Nc4c(F)cccc4F)c3)nc3ccccn23)n1` [Example 95, N-(2,6-difluorophenyl)-3-[3-(2-{[4-[1′-(2-fluoroethyl)-4,4′-bipiperidin-1-yl]-2-(methyloxy)phenyl]amino}-4-pyrimidinyl)imidazo[1,2-a]pyridin-2-yl]benzamide], the IC50 was 250 to 1000 nM in assay [1], less than 100 nM in assay [2], greater than 1000 nM with COLO205 (colon) and 100 to 500 nM in assay [3].
`CCOc1ccc(-c2nc3ccccn3c2-c2ccnc(Nc3ccc(N4CCC(N5CCCCC5)CC4)c(C)c3OC)n2)cc1C(=O)Nc1c(F)cccc1F` [Example 56, 5-[3-(2-{[4-(1,4′-bipiperidin-1′-yl)-3-methyl-2-(methyloxy)phenyl]amino}-4-pyrimidinyl)imidazo[1,2-a]pyridin-2-yl]-N-(2,6-difluorophenyl)-2-(ethyloxy)benzamide]: the IC50 was 250 to 1000 nM in assay [1], 100 to 500 nM in assay [2], greater than 1000 nM in the assay with COLO205 (colon) and 100 to 500 nM in assay [3].
Turning to `COc1cc(N2CCC(CCS(C)(=O)=O)CC2)ccc1Nc1nccc(-c2c(-c3cccc(C(=O)Nc4c(F)cccc4F)c3)nc3ccccn23)n1` [Example 202, N-(2,6-difluorophenyl)-3-(3-{2-[(2-(methyloxy)-4-{4-[2-(methylsulfonyl)ethyl)-1-piperidinyl}phenyl)amino]-4-pyrimidinyl]imidazo[1,2-a]pyridin-2-yl)benzamide], the half-maximal inhibitory concentration (IC50) in assay [1] is less than 250 nM; in assay [2], 100 to 500 nM; in the assay with COLO205 (colon), 250 to 1000 nM; in assay [3], 100 to 500 nM.
Consider `CCOc1ccc(-c2nc3ccccn3c2-c2ccnc(Nc3ccc(N4CCN(CCOC)CC4)cc3OC)n2)cc1C(=O)Nc1c(F)cccc1F` [Example 238, N-(2,6-difluorophenyl)-2-(ethyloxy)-5-(3-{2-[(2-(methyloxy)-4-{4-[2-(methyloxy)ethyl]-1-piperazinyl}phenyl)amino]-4-pyrimidinyl}imidazo[1,2-a]pyridin-2-yl)benzamide], for which the 50% inhibitory concentration (IC50) in assay [1] was less than 250 nM; in assay [2], less than 100 nM; in the assay on COLO205 (colon) it was 250 to 1000 nM; in assay [3], less than 100 nM.
Turning to `COc1cc(N2CCC(N3CCN(CCF)CC3)CC2)ccc1Nc1nccc(-c2c(-c3cccc(C(=O)Nc4c(F)cccc4F)c3)nc3c(F)cccn23)n1` [Example 188, N-(2,6-difluorophenyl)-3-[8-fluoro-3-(2-{[4-{4-[4-(2-fluoroethyl)-1-piperazinyl]-1-piperidinyl}-2-(methyloxy)phenyl]amino}-4-pyrimidinyl)imidazo[1,2-a]pyridin-2-yl]benzamide], the IC50 in assay [1] is 250 to 1000 nM; in assay [2] it was less than 100 nM; in the assay on COLO205 (colon), greater than 1000 nM; in assay [3], 100 to 500 nM.
Take `CCOc1ccc(-c2nc3ccccn3c2-c2ccnc(Nc3ccc(N4CCC(CCS(C)(=O)=O)CC4)cc3OC)n2)cc1C(=O)Nc1c(F)cccc1F` [Example 200, N-(2,6-difluorophenyl)-2-(ethyloxy)-5-(3-{2-[(2-(methyloxy)-4-{4-[2-(methylsulfonyl)ethyl]-1-piperidinyl}phenyl)amino]-4-pyrimidinyl}imidazo[1,2-a]pyridin-2-yl)benzamide]: the IC50 was less than 250 nM in assay [1], less than 100 nM in assay [2], less than 250 nM in the assay with COLO205 (colon) and less than 100 nM in assay [3].
`CCCN1CCC(c2ccc(Nc3nccc(-c4c(-c5ccc(OC)c(C(=O)Nc6c(F)cccc6F)c5)nc5ccccn45)n3)c(OCC)c2)CC1` [Example 154, N-(2,6-difluorophenyl)-5-[3-(2-{[2-(ethyloxy)-4-(1-propyl-4-piperidinyl)phenyl]amino}-4-pyrimidinyl)imidazo[1,2-a]pyridin-2-yl]-2-(methyloxy)benzamide]: the half-inhibitory concentration (IC50) in assay [1] is less than 250 nM; in assay [2], less than 100 nM; in the assay with COLO205 (colon) it was 250 to 1000 nM; in assay [3] it was less than 100 nM.
Regarding `CCOc1cc(N2CCC(N3CCN(CC(F)F)CC3)CC2)ccc1Nc1nccc(-c2c(-c3cccc(C(=O)Nc4c(F)cccc4F)c3)nc3ccccn23)n1` [Example 117, 3-[3-(2-{[4-{4-[4-(2,2-difluoroethyl)-1-piperazinyl]-1-piperidinyl}-2-(ethyloxy)phenyl]-amino}-4-pyrimidinyl)imidazo[1,2-a]pyridin-2-yl]-N-(2,6-difluorophenyl)benzamide], the half-maximal inhibitory concentration (IC50) in assay [1] was 250 to 1000 nM; in assay [2] it was less than 100 nM; with COLO205 (colon) it was greater than 1000 nM; in assay [3], less than 100 nM.
As for `COCCN1CCN(c2ccc(Nc3nccc(-c4c(-c5cccc(C(=O)Nc6c(F)cccc6F)c5)nc5ccccn45)n3)c(OC)c2)CC1` [Example 240, N-(2,6-difluorophenyl)-3-(3-{2-[(2-(methyloxy)-4-{4-[2-(methyloxy)ethyl]-1-piperazinyl}phenyl)amino]-4-pyrimidinyl}imidazo[1,2-a]pyridin-2-yl)benzamide], the IC50 was 250 to 1000 nM in assay [1], less than 100 nM in assay [2], 250 to 1000 nM in the assay with COLO205 (colon) and less than 100 nM in assay [3].
With `CCOc1cc(N2CCN(CCS(C)(=O)=O)CC2)ccc1Nc1nccc(-c2c(-c3ccc(OC)c(C(=O)Nc4c(F)cccc4F)c3)nc3ccccn23)n1` [Example 143, N-(2,6-difluorophenyl)-5-(3-{2-[(2-(ethyloxy)-4-{4-[2-(methylsulfonyl)ethyl)-1-piperazinyl}phenyl)amino]-4-pyrimidinyl}imidazo[1,2-a]pyridin-2-yl)-2-(methyloxy)benzamide], the half-inhibitory concentration (IC50) in assay [1] was less than 250 nM; in assay [2], less than 100 nM; in the assay on COLO205 (colon), 250 to 1000 nM; in assay [3] it was less than 100 nM.
Turning to `CCOc1ccc(-c2nc3ccccn3c2-c2ccnc(Nc3cc(C)c(N4CCN(CCS(C)(=O)=O)CC4)cc3OC)n2)cc1C(=O)Nc1c(F)cccc1F` [Example 150, N-(2,6-difluorophenyl)-2-(ethyloxy)-5-(3-{2-[(5-methyl-2-(methyloxy)-4-{4-[2-(methylsulfonyl)ethyl]-1-piperazinyl}phenyl)amino]-4-pyrimidinyl}imidazo[1,2-a]pyridin-2-yl)benzamide], the 50% inhibitory concentration (IC50) in assay [1] is less than 250 nM; in assay [2] it was less than 100 nM; in the assay with COLO205 (colon) it was less than 250 nM; in assay [3], less than 100 nM.
Regarding `CCOc1ccc(-c2nc3ccccn3c2-c2ccnc(Nc3cc(C)c(N4CCC(CCS(C)(=O)=O)CC4)cc3OC)n2)cc1C(=O)Nc1c(F)cccc1F` [Example 229, N-(2,6-difluorophenyl)-2-(ethyloxy)-5-(3-{2-[(5-methyl-2-(methyloxy)-4-{4-[2-(methylsulfonyl)ethyl]-1-piperidinyl}phenyl)amino]-4-pyrimidinyl}imidazo[1,2-a]pyridin-2-yl)benzamide], the IC50 in assay [1] was less than 250 nM; in assay [2] it was less than 100 nM; in the assay on COLO205 (colon), less than 250 nM; in assay [3], less than 100 nM.
Consider `CCCN1CCN(c2ccc(Nc3nccc(-c4c(-c5ccc(OCC)c(C(=O)Nc6c(F)cccc6F)c5)nc5ccccn45)n3)c(OCC)c2)CC1` [Example 152, N-(2,6-difluorophenyl)-2-(ethyloxy)-5-[3-(2-{[2-(ethyloxy)-4-(4-propyl-1-piperazinyl)phenyl]amino}-4-pyrimidinyl)imidazo[1,2-a]pyridin-2-yl]benzamide], for which the IC50 in assay [1] is less than 250 nM; in assay [2] it was less than 100 nM; in the assay with COLO205 (colon), 250 to 1000 nM; in assay [3] it was less than 100 nM.
